Test results: ChEMBL document CHEMBL1127071, “Structure-activity relationships of C-terminal endothelin hexapeptide antagonists” (J Med Chem, 1993)
pIC50: −log10 of the molar value. Values joined by “and” are separate entries in the source; they are usually repeats but may differ in a detail not shown here. Equal entries are not always repeated. Where a SMILES comes first, the peptide text is derived from it. [ ]: non-standard residue; d: D form. d2Nal = N[C@H](Cc1ccc2ccccc2c1)C(=O)O; Orn = NCCC[C@H](N)C(=O)O

How the values were obtained:
Endothelin receptor = biological target: T1, Endothelin receptor (Rattus norvegicus, UniProt P26684+P21451); assay: Binding affinity against Endothelin receptor from rat heart ventricle; format: protein assay
T1 sequence (P26684 whole entry): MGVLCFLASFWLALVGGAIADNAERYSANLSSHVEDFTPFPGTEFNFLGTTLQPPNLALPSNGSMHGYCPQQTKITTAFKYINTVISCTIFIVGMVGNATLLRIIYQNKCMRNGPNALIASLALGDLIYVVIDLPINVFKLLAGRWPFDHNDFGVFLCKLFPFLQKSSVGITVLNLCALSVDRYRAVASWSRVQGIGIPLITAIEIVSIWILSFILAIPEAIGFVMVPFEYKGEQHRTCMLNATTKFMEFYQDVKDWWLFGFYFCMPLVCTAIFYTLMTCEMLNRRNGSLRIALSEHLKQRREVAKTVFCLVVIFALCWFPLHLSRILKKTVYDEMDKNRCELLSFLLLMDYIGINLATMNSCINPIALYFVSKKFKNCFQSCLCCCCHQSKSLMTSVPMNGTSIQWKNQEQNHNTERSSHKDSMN
T1 sequence (P21451 whole entry): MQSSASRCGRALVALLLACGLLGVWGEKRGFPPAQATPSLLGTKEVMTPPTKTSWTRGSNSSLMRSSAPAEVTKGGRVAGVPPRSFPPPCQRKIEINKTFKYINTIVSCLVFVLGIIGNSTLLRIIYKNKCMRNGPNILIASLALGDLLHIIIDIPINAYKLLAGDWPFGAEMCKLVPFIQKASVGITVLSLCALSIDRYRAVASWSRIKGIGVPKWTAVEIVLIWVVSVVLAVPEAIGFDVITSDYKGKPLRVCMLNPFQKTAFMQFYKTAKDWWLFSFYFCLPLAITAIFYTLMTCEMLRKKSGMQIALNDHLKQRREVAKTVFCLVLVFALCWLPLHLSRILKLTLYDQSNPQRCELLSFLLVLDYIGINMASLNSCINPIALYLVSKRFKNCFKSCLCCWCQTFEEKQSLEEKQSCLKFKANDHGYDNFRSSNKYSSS

[1] = biological target: T2, Endothelin receptor type B (Rattus norvegicus, UniProt P21451); assay: Effective concentration against Endothelin B receptor from rat cerebellum; format: tissue-based
T2 sequence (P21451 whole entry): T1 sequence (P21451 whole entry)

Oryctolagus cuniculus = organism: Oryctolagus cuniculus; assay: Inhibition of ET-1 stimulated arachidonic acid release in rabbit renal artery vascular smooth muscle cells; format: functional

Molecule	IC50 (Endothelin receptor)	pIC50 [1]	pIC50 (Oryctolagus cuniculus)
CC[C@H](C)[C@H](NC(=O)[C@H](CC(=O)O)NC(=O)[C@@H](CC(C)C)NC(=O)[C@H](Cc1c[nH]cn1)NC(C)=O)C(=O)N[C@H](C(=O)N[C@@H](Cc1c[nH]c2ccccc12)C(=O)O)[C@@H](C)CC	39000 nM		
CC[C@H](C)[C@H](NC(=O)[C@H](CC(=O)O)NC(=O)[C@H](CC(C)C)NC(=O)[C@H](Cc1c[nH]cn1)NC(C)=O)C(=O)N[C@H](C(=O)N[C@H](Cc1c[nH]c2ccccc12)C(=O)O)[C@@H](C)CC	> 50000 nM		
CC[C@H](C)[C@H](NC(=O)[C@H](CC(=O)O)NC(=O)[C@H](CC(C)C)NC(=O)[C@@H](Cc1ccccc1)NC(C)=O)C(=O)N[C@@H](CCC(=O)O)C(=O)N[C@@H](Cc1c[nH]c2ccccc12)C(=O)O	5200 nM		
CC[C@H](C)[C@H](NC(=O)[C@H](CC(=O)O)NC(=O)[C@H](CC(C)C)NC(=O)[C@@H](Cc1c[nH]cn1)NC(C)=O)C(=O)N[C@H](C(=O)N[C@@H](Cc1c[nH]c2ccccc12)C(=O)O)[C@@H](C)CC	4100 nM and 4500 nM	5.04	
CC[C@H](C)[C@H](NC(=O)[C@H](CC(=O)O)NC(=O)[C@H](CCC(=O)O)NC(=O)[C@@H](Cc1ccccc1)NC(C)=O)C(=O)N[C@@H](Cc1c[nH]c2ccccc12)C(=O)O	740 nM	6.08	6.22
CC[C@H](C)[C@H](NC(=O)[C@H](CC(=O)O)NC(=O)[C@H](CC(C)C)NC(=O)[C@@H](Cc1ccccc1)NC(C)=O)C(=O)N[C@@H](CCCCN)C(=O)N[C@@H](Cc1c[nH]c2ccccc12)C(=O)O	> 50000 nM		
CC[C@H](C)[C@H](NC(=O)[C@H](CCCCN)NC(=O)[C@H](CC(=O)O)NC(=O)[C@H](CC(C)C)NC(=O)[C@@H](Cc1ccccc1)NC(C)=O)C(=O)N[C@@H](Cc1c[nH]c2ccccc12)C(=O)O	> 50000 nM	< 5.00	
CC[C@H](C)[C@H](NC(=O)[C@H](CC(=O)O)NC(=O)[C@H](CC(C)C)NC(=O)[C@H](N)Cc1ccccc1)C(=O)N[C@H](C(=O)N[C@@H](Cc1c[nH]c2ccccc12)C(=O)O)[C@@H](C)CC	12400 nM	5.59	
CC[C@H](C)[C@H](NC(=O)[C@H](Cc1ccc(O)cc1)NC(=O)[C@@H](Cc1ccccc1)NC(C)=O)C(=O)N[C@H](C(=O)N[C@@H](Cc1c[nH]c2ccccc12)C(=O)O)[C@@H](C)CC		< 5.00	
CC[C@H](C)[C@H](NC(=O)[C@H](CC(=O)O)NC(=O)[C@H](CC(C)C)NC(=O)[C@@H](Cc1ccccc1)NC(C)=O)C(=O)N[C@H](C(=O)N[C@@H](Cc1csc2ccccc12)C(=O)O)[C@@H](C)CC	3800 nM	5.01	< 5.00
CC[C@@H](C)[C@@H](NC(=O)[C@H](CC(=O)O)NC(=O)[C@H](CC(C)C)NC(=O)[C@H](Cc1c[nH]cn1)NC(C)=O)C(=O)N[C@H](C(=O)N[C@@H](Cc1c[nH]c2ccccc12)C(=O)O)[C@@H](C)CC	169000 nM		
CC[C@H](C)[C@H](NC(=O)[C@H](CCCCN)NC(=O)[C@H](CC(C)C)NC(=O)[C@@H](Cc1ccccc1)NC(C)=O)C(=O)N[C@H](C(=O)N[C@@H](Cc1c[nH]c2ccccc12)C(=O)O)[C@@H](C)CC	12000 nM	< 5.00	
CC[C@H](C)[C@H](NC(=O)[C@H](CCC(=O)O)NC(=O)[C@H](CC(=O)O)NC(=O)[C@H](CC(C)C)NC(=O)[C@@H](Cc1ccccc1)NC(C)=O)C(=O)N[C@@H](Cc1c[nH]c2ccccc12)C(=O)O	9000 nM	< 5.00	< 5.00
CC[C@H](C)[C@H](NC(=O)[C@H](CC(=O)O)NC(=O)[C@H](CC(C)C)NC(=O)[C@@H](N)Cc1ccccc1)C(=O)N[C@H](C(=O)N[C@@H](Cc1c[nH]c2ccccc12)C(=O)O)[C@@H](C)CC		5.59	
CC[C@H](C)[C@H](NC(=O)[C@H](CC(=O)O)NC(=O)[C@H](CC(C)C)NC(=O)[C@@H](Cc1ccc2ccccc2c1)NC(C)=O)C(=O)N[C@H](C(=O)N[C@@H](Cc1c[nH]c2ccccc12)C(=O)O)[C@@H](C)CC (Ac-[d2Nal]LDIIW-OH)			5.72
CC[C@H](C)[C@H](NC(=O)[C@@H](Cc1ccccc1)NC(C)=O)C(=O)N[C@@H](Cc1c[nH]c2ccccc12)C(=O)O (Ac-[dF]-Ile-Trp-OH)		< 5.00	

Molecule	IC50 (Endothelin receptor)	pIC50 [1]	pIC50 (Oryctolagus cuniculus)
CC[C@H](C)[C@H](NC(=O)[C@H](CC(=O)O)NC(=O)[C@H](C)NC(=O)[C@@H](Cc1ccccc1)NC(C)=O)C(=O)N[C@H](C(=O)N[C@@H](Cc1c[nH]c2ccccc12)C(=O)O)[C@@H](C)CC (Ac-[dF]ADIIW-OH)	420 nM	6.54	6.48
CC[C@H](C)[C@H](NC(=O)[C@H](Cc1ccccc1)NC(=O)[C@H](CC(=O)O)NC(=O)[C@@H](Cc1ccccc1)NC(C)=O)C(=O)N[C@@H](Cc1c[nH]c2ccccc12)C(=O)O (Ac-[dF]DFIW-OH)		5.34	
CC[C@H](C)[C@H](NC(=O)[C@H](CC(=O)O)NC(=O)[C@@H](Cc1ccccc1)NC(C)=O)C(=O)N[C@H](C(=O)N[C@@H](Cc1c[nH]c2ccccc12)C(=O)O)[C@@H](C)CC (Ac-[dF]DIIW-OH)	2150 nM		
CC[C@H](C)[C@H](NC(=O)[C@@H](NC(=O)[C@@H](Cc1ccccc1)NC(C)=O)[C@@H](C)CC)C(=O)N[C@@H](Cc1c[nH]c2ccccc12)C(=O)O (Ac-[dF]IIW-OH)		< 5.00	
CC[C@H](C)[C@H](NC(=O)[C@H](C)NC(=O)[C@H](CC(=O)O)NC(=O)[C@H](CC(C)C)NC(=O)[C@@H](Cc1ccccc1)NC(C)=O)C(=O)N[C@@H](Cc1c[nH]c2ccccc12)C(=O)O (Ac-[dF]LDAIW-OH)	1610 nM	6.35	5.82
CC[C@H](C)[C@H](NC(=O)[C@H](CC(=O)O)NC(=O)[C@H](CC(C)C)NC(=O)[C@@H](Cc1ccccc1)NC(C)=O)C(=O)N[C@H](C(=O)N[C@@H](Cc1c[nH]c2ccccc12)C(=O)O)[C@@H](C)CC (Ac-[dF]LDIIW-OH)	740 nM	5.70	
CC[C@H](C)[C@H](NC(=O)[C@H](CC(=O)O)NC(=O)[C@H](CC(C)C)NC(=O)[C@@H](Cc1ccccc1)NC(C)=O)C(=O)N[C@H](C(=O)N[C@@H](Cc1ccc(O)cc1)C(=O)O)[C@@H](C)CC (Ac-[dF]LDIIY-OH)		6.82	
CC[C@H](C)[C@H](NC(=O)[C@H](CC(=O)O)NC(=O)[C@H](CC(C)C)NC(=O)[C@@H](Cc1ccccc1)NC(C)=O)C(=O)N[C@@H](Cc1c[nH]c2ccccc12)C(=O)O (Ac-[dF]LDIW-OH)	24500 nM	< 5.00	
CC[C@H](C)[C@H](NC(=O)[C@H](Cc1ccccc1)NC(=O)[C@H](CC(C)C)NC(=O)[C@@H](Cc1ccccc1)NC(C)=O)C(=O)N[C@H](C(=O)N[C@@H](Cc1c[nH]c2ccccc12)C(=O)O)[C@@H](C)CC (Ac-[dF]LFIIW-OH)	380 nM	7.44	
CC[C@H](C)[C@H](NC(=O)[C@H](CC(=O)O)NC(=O)[C@H](CCCN)NC(=O)[C@@H](Cc1ccccc1)NC(C)=O)C(=O)N[C@H](C(=O)N[C@@H](Cc1c[nH]c2ccccc12)C(=O)O)[C@@H](C)CC (Ac-[dF][Orn]DIIW-OH)	680 nM	5.61	
CC[C@H](C)[C@H](NC(=O)[C@H](CC(=O)O)NC(=O)[C@H](CC(C)C)NC(=O)[C@@H](Cc1ccc(O)cc1)NC(C)=O)C(=O)N[C@H](C(=O)N[C@@H](Cc1c[nH]c2ccccc12)C(=O)O)[C@@H](C)CC (Ac-[dY]LDIIW-OH)		5.15	6.60
CC[C@H](C)[C@H](NC(=O)[C@H](CC(=O)O)NC(=O)[C@H](CC(C)C)NC(=O)[C@@H](Cc1ccccc1)NC(C)=O)C(=O)N[C@H](C(=O)NC(Cc1cnc[nH]1)C(=O)O)[C@@H](C)CC (mixture of isomers)		< 5.00	
CC[C@H](C)[C@H](NC(=O)[C@H](CC(=O)O)NC(=O)[C@H](Cc1ccccc1)NC(=O)[C@@H](Cc1ccccc1)NC(C)=O)C(=O)N[C@H](C(=O)N[C@@H](Cc1c[nH]c2ccccc12)C(=O)O)[C@@H](C)CC (stereo in doubt; 20)	330 nM	7.22	
CC[C@H](C)[C@H](NC(=O)[C@H](CC(=O)O)NC(=O)[C@H](Cc1ccccc1)NC(=O)[C@@H](Cc1ccccc1)NC(C)=O)C(=O)N[C@H](C(=O)N[C@@H](Cc1c[nH]c2ccccc12)C(=O)O)[C@@H](C)CC (stereo in doubt; 21)		7.70	5.66
Ac-FLDIIW-OH		4.73	
